From patent publication US5484778A, “Phthalocyanine photosensitizers for photodynamic therapy and methods for their use” (priority 1993, dated 1996)
Entries after “also recorded” stand apart in the source; their conditions may differ.

Columns and labels:
V79 cells [1] = system: V79 cells
Description: V79 cells Chinese hamster lung fibroblasts were cultured using the cell culture methods described above. […] When the filters were dry, the phthalocyanines were extracted into ethanol and the absorption determined at the peak wavelength, usually 668 nm.

L5178Y cells = test: Induction of apoptosis (DNA fragmentation) in L5178Y-R cells (Table 6); format: cell-based, mouse; conditions: for apoptosis (in words): various concentrations and fluences
Description: (§1) Mouse lymphoma L5178y-R (hereinafter also referred to as "LY-R") cells were grown in suspension culture as described in Ramakrishnan N., Oleinick, N. L. Clay, M. E., Horng, M. F., Antunez, A. R., and Evans H. H., DNA lesions and DNA degradation in mouse lymphoma L5178Y cells after photodynamic treatment sensitized by chloroaluminum phthalocyanine. Photochem. Photobiol. 50, 373-378, 1989 and Agarwal, M. L., Clay, M. E., Harvey, E. J., Evans, H. H., Antunez, A. R., and Oleinick, N. L. Photodynamic therapy induces rapid cell death by apoptosis in L5178Y mouse lymphoma cells. Cancer Res., 51, 5993-5996, 1991.
(§2) The cells were used while in exponential growth. Stock solutions of either 0.5 or 1 mM of PcIV, PcXII, PcX, PcXVIII were prepared in dimethylformamide unless otherwise indicated and added to the 10 mL medium at a rate of 1 μL per mL. After allowing 18 hours for uptake of the phthalocyanine into the cells, the flasks containing the cultures were placed on a glass exposure tray above a 500-W tungsten-halogen lamp. The exposure tray was fitted with a 600-nm high-pass filter. Flasks were exposed to various fluences of red light (up to 30 kJ/m^2) at a fluence rate of approximately 74 W/m^2). After irradiation, the cells were collected by centrifugation.
(§3) For measurement of clonogenic cell survival, aliquots were plated in medium containing soft agar as described in Ramakrishnan N., Oleinick, N. L. Clay, M. E., Horng, M. F., Antunez, A. R., and Evans H. H., DNA lesions and DNA degradation in mouse lymphoma L5178Y cells after photodynamic treatment sensitized by chloroaluminum phthalocyanine. Photochem. Photobiol. 50, 373-378, 1989. The aliquots were plated in sufficient numbers to produce 50-200 colonies. The dishes were kept in an incubator at 37° C. in an atmosphere of 5% CO2 and 95% air for 10-14 days to allow viable cells to form colonies. Colonies were counted by eye. Controls treated with the phthalocyanine alone had plating efficiencies of ~90%. The plating efficiencies of the treated cells are normalized to the plating efficiencies of control cells in each experiment. For measurement of the induction of apoptosis, DNA was isolated from the treated and control cells 2 hours after photodynamic therapy, subjected to electrophoresis on 1.5% agarose, stained with ethidium bromide, and visualized by UV transillumination, as described in Agarwal et. al. The results are shown in Tables 4, 5 and 6 and in FIG. 3.
Cells were treated with various concentrations of the compounds listed in the table and various light fluences. DNA gels were prepared and examined for the characteristic "ladder" pattern of DNA fragments. For each Pc, the minimum total PDT dose tested (calculated as the product of the minimum phthalocyanine concentration and the minimum fluence) which produced visible DNA fragments is recorded. […] PcXVIII was also added at 0.5 and 1.0 μM.

V79 cells [2] = test: Clonogenicity, killing of V79 cells using photodynamic therapy (Table 3); format: cell-based, Chinese hamster; conditions: for photosensitizing activity, killing V79 cells (in words): discussion of Table 3
Description: Using the cell culture methods described above, V79 cells Chinese hamster lung fibroblasts were treated with either 0.5 or 1.0 μM of the phthalocyanines listed in Table 3. About 18 hours thereafter, the cells were irradiated with increasing doses of 675 nm broad band red light from a 500 W tungsten-halogen lamp fitted with a 600 nm high pass filter, to determine the light dosage that would kill 90% of the phthalocyanine treated cells. Where 90% of the cells were not killed, the maximum percent of cells killed were determined, (expressed as % survival) and the related light dosage recorded.

RIF-1 tumors = test: PDT of RIF-1 implanted tumors (Table 7); format: in vivo, C3H/HeN mice; conditions: for effect on tumor volume / growth (in words): 1 mg/kg; for Doubling Time of Initial Tumor Volume after PDT: 1 mg/kg in corn oil, 675 nm, 135 J/cm^2
Description: The relative effectiveness at reducing tumor volume of selected phthalocyanine compounds at a given dosage was compared in vivo. RIF-1, i.e., radiation-induced fibrosarcoma, tumors were implanted into the backs of C3H/HeN mice. One tumor was implanted per mouse. Each of the phthalocyanine compounds listed in Table 7 was sonicated and vortexed in corn oil to produce a suspension. When the tumors reached […] in diameter and 2-3 mm in thickness, each mouse received 1 mg/kg in 0.1 ml of the corn oil, of the phthalocyanine suspension. For comparison, select mice received a conventional photosensitizer; either 5 mg/kg of chloroaluminum phthalocyanine tetrasulfonate, herein also referred to as "AlPcTS" in phosphate buffered saline or 5 mg/kg of Photofrin®-II in 5% dextrose. Twenty-four hours after the photosensitizers were administered, the tumors were irradiated with visible radiation delivered by an argon-pumped dye laser. The mice that received a phthalocyanine photosensitizer received light having a wavelength of 675 nm and the mice that received the Photofrin® II photosensitizer received light having a wavelength of 630 nm. Each tumor received 135 J/cm^2 of radiation. Tumor size was measured every day using calipers. The initial tumor volume was 50±10 mm^3. Tumor volume was calculated according to the hemiellipsoid model by the formula: [formula] Where l is length Where W is width

L5178Y-R (LY-R) cells = test: Clonogenic survival of PDT-treated L5178Y-R cells (Tables 4 and 5, FIG. 3); format: cell-based, mouse; conditions: 0.5 μM; for activity relative to PcXII: from Table 5; for LD 90: fluence reducing survival to 10%; for LD50: fluence reducing survival to 50%
Description: as §1, §2, §3
In Table 4 each phthalocyanine was present at 0.5 μM, and the normalized plating efficiencies are presented as mean and standard deviation at each fluence tested. […] This relative activity of these four phthalocyanines is the same as obtained from screening in V79 cells.
PcXII when present in the culture medium at 0.5 μM requires less light, that is the lowest fluence, to kill either 50% […] of the cells. PcIV is about 80% as active as PcXII, PcX is 44% as active as PcXII and PcXVIII is 22% as active as PcXII.

[3] = 0.5 μM, 18 h, light dose killing 90% of cells

Compound | Uptake (from Table 2) (V79 cells [1]) | Uptake into V79 cells, composite value (V79 cells [1]) | Minimum Demonstrated Condition to induce apoptosis: C × F (L5178Y cells; 0.5 μM) | Minimum Demonstrated Condition to induce apoptosis: Fluence (L5178Y cells; 0.5 μM) | Minimum Demonstrated Condition to induce apoptosis: C × F (L5178Y cells; 1.0 μM) | Minimum Demonstrated Condition to induce apoptosis: Fluence (L5178Y cells; 1.0 μM) | apoptosis (in words) (L5178Y cells) | effect on tumor volume / growth (in words) (RIF-1 tumors) | Doubling Time of Initial Tumor Volume after PDT (RIF-1 tumors) | LD 90 (V79 cells [2]; [3]) | also measured
C[Si](C)(CCCCNS(C)(=O)=O)O[Si]1(O)n2c3c4ccccc4c2N=C2N=C(N=c4c5ccccc5c(n41)=NC1=NC(=N3)c3ccccc31)c1ccccc12 (centres unmarked) [Compound IX, HOSiPCOSi(CH3)2 (CH2)4 NHSO2 CH3] | 0.3 n Moles/10^6 cells/μM | 0.3 n Moles/10^6 cells/μM | 4.0 μm × kJ/m^2 | 8.0 kJ/m^2 | 12.0 μm × kJ/m^2 | 12.0 kJ/m^2 | activity increases and then decreases as the concentration is raised | particularly effective in reducing tumor volume | 11 days |  | Minimum Demonstrated Condition to induce apoptosis: C × F (L5178Y cells; 0.3 μM): 3.6 μm × kJ/m^2; Minimum Demonstrated Condition to induce apoptosis: Fluence (L5178Y cells; 0.3 μM): 12.0 kJ/m^2; Maximum Effect (% survival) (V79 cells [2]; 0.5 μM, at 9 kJ/m^2): 44%
C[Si](C)(CCCCN)O[Si]1(O[Si](C)(C)CCCCN)n2c3c4ccccc4c2N=C2N=C(N=c4c5ccccc5c(n41)=NC1=NC(=N3)c3ccccc31)c1ccccc12 [Compound VII, SiPc[OSi(CH3)2 (CH2)4 NH2]2] | 0.2 n Moles/10^6 cells/μM | 0.2 n Moles/10^6 cells/μM | 1.5 μm × kJ/m^2 | 3.0 kJ/m^2 |  |  |  |  |  |  | uptake by V79 cells (in words) (V79 cells [1]): poor uptake; LD 90 (V79 cells [2]; 0.5 μM, preplated data only): 4 kJ/m^2; photosensitizing activity, killing V79 cells (in words) (V79 cells [2]; listed as PcVII): most active at killing V79 cells; also recorded: one of the better photosensitizers
CCN(CCC[Si](C)(C)O[Si]1(O)n2c3c4ccccc4c2N=C2N=C(N=c4c5ccccc5c(n41)=NC1=NC(=N3)c3ccccc31)c1ccccc12)CCN(C)C (centres unmarked) [Compound X, HOSiPcOSi(CH3)2 (CH2)3 N(CH2 CH3)(CH2)2 N(CH3)2] | 0.7 n Moles/10^6 cells/μM | 0.7 n Moles/10^6 cells/μM | 3.0 μm × kJ/m^2 | 6.0 kJ/m^2 | 3.0 μm × kJ/m^2 | 3.0 kJ/m^2 | the same minimum value for the C×F product was obtained in both cases |  |  | 7 kJ/m^2 | photosensitizer activity in LY-R cells (in words) (L5178Y-R (LY-R) cells): active photosensitizers; activity relative to PcXII (L5178Y-R (LY-R) cells): 44%; LD 90 (L5178Y-R (LY-R) cells): 4.19 kJ/m^2; LD50 (L5178Y-R (LY-R) cells): 2.38 kJ/m^2
CCN(CCC[Si](C)(C)O[Si]1(O[Si](C)(C)CCCN(CC)CCN(C)C)n2c3c4ccccc4c2N=C2N=C(N=c4c5ccccc5c(n41)=NC1=NC(=N3)c3ccccc31)c1ccccc12)CCN(C)C [Compound XVIII, SiPc[OSi(CH3)2 (CH2)3 N(CH2 CH3)(CH2)2 N(CH3)2]2] |  |  | 5.0 μm × kJ/m^2 | 10.0 kJ/m^2 | 3.0 μm × kJ/m^2 | 3.0 kJ/m^2 | minimum value of C×F differed only slightly for the two conditions | particularly effective in reducing tumor volume | 12 days |  | activity relative to PcXII (L5178Y-R (LY-R) cells): 22%; LD 90 (L5178Y-R (LY-R) cells): 7.81 kJ/m^2; LD50 (L5178Y-R (LY-R) cells): 5.00 kJ/m^2; photosensitizer activity in LY-R cells (in words) (L5178Y-R (LY-R) cells; listed as PcXVIII): active photosensitizers; also recorded: least active; LD 90 (V79 cells [2]; 1 μM, 18 h): 7 kJ/m^2; photosensitizing activity, killing V79 cells (in words) (V79 cells [2]): good activity
CN1CCN(CCC[Si](C)(C)O[Si]2(O)n3c4c5ccccc5c3N=C3N=C(N=c5c6ccccc6c(n52)=NC2=NC(=N4)c4ccccc42)c2ccccc23)CC1 (centres unmarked) [Compound XXVIII, HOSiPcOSi(CH3)2 (CH2)3 NC4 H8 NCH3] |  |  |  |  |  |  |  |  | 24 days | 1.8 kJ/m^2 | Minimum Demonstrated Condition to induce apoptosis: C × F (L5178Y cells; 0.3 μM): 0.9 μm × kJ/m^2; Minimum Demonstrated Condition to induce apoptosis: Fluence (L5178Y cells; 0.3 μM): 3.0 kJ/m^2; photosensitizing activity, killing V79 cells (in words) (V79 cells [2]; listed as Pc XXVIII): photodynamic killing efficiency is superior to PcXII; photosensitizing activity, killing V79 cells (in words) (V79 cells [2]; listed as PcXXVIII): most active at killing V79 cells; also recorded: highest activity in killing V79 cells of all of the phthalocyanines; effect on tumor volume / growth (in words) (RIF-1 tumors; listed as Pc XXVIII): significantly impair the growth of the tumors; effect on tumor volume / growth (in words) (RIF-1 tumors; listed as PcXXVIII): particularly effective in reducing tumor volume
HOSiPcOSi(CH3)2 (CH2)3 N[(CH2)3 N(CH3)2 ]2 [Compound XXVII] | 1.5 n Moles/10^6 cells/μM | 1.5 n Moles/10^6 cells/μM |  |  |  |  |  |  |  | 6.8 kJ/m^2 | uptake by V79 cells (in words) (V79 cells [1]): taken up particulary well
SiPc[OSi(CH3)2 (CH2)4 NHSO2 CH3 ]2 [Compound VIII] | 0.2 n Moles/10^6 cells/μM | 0.2 n Moles/10^6 cells/μM |  |  |  |  |  | the doubling of tumor volume was delayed in the animals treated with each of the compounds except PcVIII | 4 days |  | induction of apoptosis (L5178Y cells; 1 μM at a fluence of 30 kJ/m^2): did not induce apoptosis; Maximum Effect (% survival) (V79 cells [2]; 1 μM, at 30 kJ/m^2): 94%
